The source of these data is patent US7949164B2, “Lung cancer diagnosis using magnetic resonance imaging data obtained at three time points” (Yeda Research & Development Co. Ltd., priority 2005, dated 2011).

A short description of data set [1]: Contrast agent pharmacokinetics in plasma: bi-exponential fit of DCE-MRI signal enhancement curves (heart ventricle / great vessels) after bolus injection. Format: in vivo. Particulars: nude rats, bolus into tail vein, dose 0.1 mmol/kg wt. On the procedure:
Enhancement, E(t), is defined as the difference in signal intensities before and after contrast material injection: E(t)=[I(t)−I(t0)]/I(t0) Eq. (1) where I designates signal intensity. Assuming similar pharmacokinetics for all patients with normal kidney function, Cp(t) in ml contrast agent per liter blood may be given by the equation: Cp(t)=D(a1e^−m1^t+a2e^−m2^t) D=dose in ml/kg Eq. (2)
To determine contrast agent pharmacokinetics, GdDTPA was injected as a bolus into the tail of the rats at a dose of 0.1 mmol/kg. Changes in the bolus concentration of the contrast agent after injection were monitored by fitting the signal enhancement curves of the in vivo DCE-MRI studies, of regions of interest at the heart ventricle or in one of the great vessels, to a bi-exponential decay. Similar values were previously derived by measurements of blood samples taken after the bolus injection.
The time-dependent changes in signal enhancement were processed pixel-by-pixel using Tofts' physiological model, the contrast agent pharmacokinetics and pre-contrast T1 values (Table 1), and the calibration algorithms herein described.

For data set [2] the following is noted: listed under H460 NSCLC tumor tissue; Furman-Haran, 1997; cited from earlier work.

Each structure is given as a SMILES string.

In the case of `O=C([O-])CN(CCN(CC(=O)[O-])CC(=O)O)CCN(CC(=O)[O-])CC(=O)O.[Gd+3]` [Gd-DTPA, Gadolinium-diethylene triamino pentaacetic acid], in data set [1], the “a1, Amplitude of fast decay” value was 9.44 kg/L; the “a2, Amplitude of slow decay” value was 3.99 kg/L; the “m1, Fast decay time constant” value was determined as 0.75 min⁻¹; the “m2, Slow decay time constant” value was found to be 0.033 min⁻¹. In addition, the “R1, T1 relaxivity” value in data set [2] is listed as 4.2 {Furman- s^−1mM^−1.
